# Activity calls are given as the source filed them.
# Assays:
# Insulin-degrading enzyme [1] = target: T1, Insulin-degrading enzyme (Homo sapiens, UniProt P14735); experiment: activators of endogenous IDE in HEK cells, dose response, cell-based, fluorescence polarization (AID 588439); type: functional
# T1 sequence (P14735 whole entry): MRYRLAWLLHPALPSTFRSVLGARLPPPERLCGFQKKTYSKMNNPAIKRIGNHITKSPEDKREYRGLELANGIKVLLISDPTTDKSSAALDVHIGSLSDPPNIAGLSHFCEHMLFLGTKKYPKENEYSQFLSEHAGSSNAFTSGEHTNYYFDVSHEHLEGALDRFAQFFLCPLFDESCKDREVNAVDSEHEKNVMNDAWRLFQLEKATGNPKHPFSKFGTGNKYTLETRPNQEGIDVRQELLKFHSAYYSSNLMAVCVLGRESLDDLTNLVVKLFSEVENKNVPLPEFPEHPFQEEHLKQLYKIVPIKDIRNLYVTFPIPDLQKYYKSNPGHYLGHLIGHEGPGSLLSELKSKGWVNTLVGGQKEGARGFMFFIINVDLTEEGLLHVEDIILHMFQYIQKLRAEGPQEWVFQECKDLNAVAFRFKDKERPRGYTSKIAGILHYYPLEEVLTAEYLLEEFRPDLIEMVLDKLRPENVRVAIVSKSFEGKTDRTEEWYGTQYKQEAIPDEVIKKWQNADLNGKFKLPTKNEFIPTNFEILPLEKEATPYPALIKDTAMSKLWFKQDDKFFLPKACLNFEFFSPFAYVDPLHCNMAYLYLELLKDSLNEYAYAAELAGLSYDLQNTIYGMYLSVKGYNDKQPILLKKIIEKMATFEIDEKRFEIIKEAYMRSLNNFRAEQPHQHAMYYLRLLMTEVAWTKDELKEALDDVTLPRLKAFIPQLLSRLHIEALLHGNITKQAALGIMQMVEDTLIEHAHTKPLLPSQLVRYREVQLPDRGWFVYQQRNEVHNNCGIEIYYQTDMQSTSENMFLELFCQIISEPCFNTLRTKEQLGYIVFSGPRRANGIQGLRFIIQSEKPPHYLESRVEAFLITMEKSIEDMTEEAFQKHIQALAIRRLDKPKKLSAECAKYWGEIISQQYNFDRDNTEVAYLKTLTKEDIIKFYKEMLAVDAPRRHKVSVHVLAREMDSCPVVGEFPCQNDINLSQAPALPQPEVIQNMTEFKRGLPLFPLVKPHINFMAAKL
# HEK293 [2] = experiment: HEK cell cytotoxicity by LDH release, dose response, cytotoxicity control for IDE activator project, fluorescence, HEK cells (AID 588440); type: functional, cell-based; conditions: Homo sapiens;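 also: cytotoxicity by LDH release measuring loss of membrane integrity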
# HEK293 [3] = experiment: optical interference in Abeta FP readout, dose response, artefact control for IDE activator project, biochemical, fluorescence polarization (AID 588442); type: functional, cell-based; conditions: Homo sapiens
# Beta-lactamase [4] = target: Beta-lactamase (Salmonella choleraesuis (strain SC-B67), UniProt Q5J463)
# Chain of Beta-lactamase (Salmonella choleraesuis (strain SC-B67), UniProt Q5J463) (Q5J463 whole entry): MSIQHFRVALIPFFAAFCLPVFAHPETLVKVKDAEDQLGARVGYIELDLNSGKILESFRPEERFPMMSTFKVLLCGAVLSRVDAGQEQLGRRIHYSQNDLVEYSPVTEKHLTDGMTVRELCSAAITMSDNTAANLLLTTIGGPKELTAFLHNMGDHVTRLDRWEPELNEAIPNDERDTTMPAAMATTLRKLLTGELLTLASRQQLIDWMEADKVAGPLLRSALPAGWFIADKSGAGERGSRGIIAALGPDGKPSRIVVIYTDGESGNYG
# [5] = target: Broad substrate specificity ATP-binding cassette transporter ABCG2 (Homo sapiens, UniProt Q9UNQ0); experiment: ABCG2 efflux pump inhibitors, dose response, Ig-MXP3 cells, flow cytometry (AID 1690); type: functional
# Chain of Broad substrate specificity ATP-binding cassette transporter ABCG2 (Q9UNQ0 whole entry): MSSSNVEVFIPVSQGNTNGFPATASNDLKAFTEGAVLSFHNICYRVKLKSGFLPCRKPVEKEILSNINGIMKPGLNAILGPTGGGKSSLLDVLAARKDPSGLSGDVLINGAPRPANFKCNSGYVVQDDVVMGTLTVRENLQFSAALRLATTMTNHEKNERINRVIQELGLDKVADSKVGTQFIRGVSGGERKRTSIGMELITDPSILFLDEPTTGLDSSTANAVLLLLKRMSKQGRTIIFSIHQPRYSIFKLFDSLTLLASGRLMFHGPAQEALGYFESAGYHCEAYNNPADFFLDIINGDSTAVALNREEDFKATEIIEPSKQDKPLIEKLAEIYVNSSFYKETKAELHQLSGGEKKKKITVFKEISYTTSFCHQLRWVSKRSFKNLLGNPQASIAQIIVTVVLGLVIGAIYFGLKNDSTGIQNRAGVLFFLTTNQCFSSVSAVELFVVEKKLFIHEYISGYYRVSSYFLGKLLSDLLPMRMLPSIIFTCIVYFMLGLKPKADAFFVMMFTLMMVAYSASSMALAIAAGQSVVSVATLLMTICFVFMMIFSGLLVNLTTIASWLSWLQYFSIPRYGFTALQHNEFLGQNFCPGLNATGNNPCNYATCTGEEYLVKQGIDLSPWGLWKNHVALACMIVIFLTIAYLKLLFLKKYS
# Insulin-degrading enzyme [6] = target: T1, Insulin-degrading enzyme; experiment: activators of recombinant IDE enzyme, dose response, counter-screen for IDE activator project, biochemical, fluorescence polarization (AID 588681)
# Beta-lactamase [7] = target: Beta-lactamase (Pseudomonas aeruginosa, UniProt Q79MP6);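 also: biochemical dose-response test of metallo-beta-lactamase enzyme inhibition, read out by epi-absorbance; purified recombinant IMP-1 metallo-beta-lactamase with nitrocefin as substrate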
# Chain of Beta-lactamase (Pseudomonas aeruginosa, UniProt Q79MP6) (Q79MP6 whole entry, the tested form may be a part): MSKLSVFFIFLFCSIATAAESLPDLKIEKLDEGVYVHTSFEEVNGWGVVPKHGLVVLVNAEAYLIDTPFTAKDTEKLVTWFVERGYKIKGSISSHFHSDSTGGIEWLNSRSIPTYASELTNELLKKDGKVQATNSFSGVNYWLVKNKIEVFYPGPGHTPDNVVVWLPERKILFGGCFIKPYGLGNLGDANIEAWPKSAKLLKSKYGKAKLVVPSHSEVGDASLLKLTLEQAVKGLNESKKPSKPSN
# [8] = target: Arf-GAP with SH3 domain, ANK repeat and PH domain-containing protein 1 (Homo sapiens, UniProt Q9ULH1); type: functional;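 also: biochemical fluorescence polarization dose–response screen measuring inhibition of ASAP1; ASAP1 GAP domain stimulating GTP hydrolysis by truncated human ARF1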
# Chain of Arf-GAP with SH3 domain, ANK repeat and PH domain-containing protein 1 (Q9ULH1 whole entry, the tested form may be a part): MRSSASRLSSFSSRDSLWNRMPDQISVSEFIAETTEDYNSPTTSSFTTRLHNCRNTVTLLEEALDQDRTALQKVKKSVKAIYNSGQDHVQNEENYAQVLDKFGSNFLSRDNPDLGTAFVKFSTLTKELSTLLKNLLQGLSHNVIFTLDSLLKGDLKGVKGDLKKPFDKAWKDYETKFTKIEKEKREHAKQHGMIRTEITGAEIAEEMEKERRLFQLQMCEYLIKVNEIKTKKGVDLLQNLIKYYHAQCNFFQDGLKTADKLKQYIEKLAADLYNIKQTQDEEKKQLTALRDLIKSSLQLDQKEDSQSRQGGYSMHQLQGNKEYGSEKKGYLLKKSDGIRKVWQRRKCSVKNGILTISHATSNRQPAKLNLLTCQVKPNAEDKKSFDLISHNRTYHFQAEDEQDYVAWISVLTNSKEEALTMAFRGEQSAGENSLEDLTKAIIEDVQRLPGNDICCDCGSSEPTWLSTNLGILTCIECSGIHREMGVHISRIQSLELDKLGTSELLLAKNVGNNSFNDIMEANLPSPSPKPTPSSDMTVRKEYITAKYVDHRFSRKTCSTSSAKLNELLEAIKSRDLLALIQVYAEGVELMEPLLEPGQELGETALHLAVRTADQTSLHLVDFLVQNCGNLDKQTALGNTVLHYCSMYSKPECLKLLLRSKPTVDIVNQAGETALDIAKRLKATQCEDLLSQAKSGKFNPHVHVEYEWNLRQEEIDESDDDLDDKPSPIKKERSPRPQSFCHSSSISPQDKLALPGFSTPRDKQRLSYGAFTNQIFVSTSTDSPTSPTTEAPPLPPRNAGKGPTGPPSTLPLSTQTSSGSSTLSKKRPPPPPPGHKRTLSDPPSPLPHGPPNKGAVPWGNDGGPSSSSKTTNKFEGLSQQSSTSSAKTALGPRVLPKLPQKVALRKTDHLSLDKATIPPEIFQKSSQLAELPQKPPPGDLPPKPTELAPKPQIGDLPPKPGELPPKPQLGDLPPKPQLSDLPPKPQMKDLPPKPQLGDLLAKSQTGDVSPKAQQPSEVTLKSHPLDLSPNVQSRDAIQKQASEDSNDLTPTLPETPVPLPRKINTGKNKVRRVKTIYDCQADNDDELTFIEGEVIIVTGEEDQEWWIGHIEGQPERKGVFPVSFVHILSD
# [9] = target: T2, Zinc finger protein mex-5 (Caenorhabditis elegans, UniProt Q9XUB2); experiment: MEX-5/TCR-2 RNA interaction inhibitors, dose response, biochemical, C. elegans, fluorescence polarization (AID 1960)
# T2 sequence (Q9XUB2 whole entry): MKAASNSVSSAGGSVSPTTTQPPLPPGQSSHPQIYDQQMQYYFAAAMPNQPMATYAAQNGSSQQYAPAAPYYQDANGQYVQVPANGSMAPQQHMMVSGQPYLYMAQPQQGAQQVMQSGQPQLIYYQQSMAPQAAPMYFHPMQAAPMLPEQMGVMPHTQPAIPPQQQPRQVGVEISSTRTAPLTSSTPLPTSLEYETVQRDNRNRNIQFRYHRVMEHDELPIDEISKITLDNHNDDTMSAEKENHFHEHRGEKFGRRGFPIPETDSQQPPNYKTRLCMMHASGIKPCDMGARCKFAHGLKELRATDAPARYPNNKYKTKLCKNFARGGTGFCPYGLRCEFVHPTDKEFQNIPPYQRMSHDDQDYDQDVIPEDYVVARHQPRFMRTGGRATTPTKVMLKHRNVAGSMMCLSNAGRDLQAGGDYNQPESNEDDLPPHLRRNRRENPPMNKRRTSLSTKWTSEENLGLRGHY
# [10] = target: T3, RNA-binding protein pos-1 (Caenorhabditis elegans, UniProt G5EF15); experiment: inhibitors of POS-1/mex-3 RNA binding, dose response, biochemical, fluorescence polarization (AID 1964);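 also: purified POS-1 fused to maltose binding protein made in E. coli; potency of compounds blocking POS-1 binding to fluorescent RNA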
# T3 sequence (G5EF15 whole entry): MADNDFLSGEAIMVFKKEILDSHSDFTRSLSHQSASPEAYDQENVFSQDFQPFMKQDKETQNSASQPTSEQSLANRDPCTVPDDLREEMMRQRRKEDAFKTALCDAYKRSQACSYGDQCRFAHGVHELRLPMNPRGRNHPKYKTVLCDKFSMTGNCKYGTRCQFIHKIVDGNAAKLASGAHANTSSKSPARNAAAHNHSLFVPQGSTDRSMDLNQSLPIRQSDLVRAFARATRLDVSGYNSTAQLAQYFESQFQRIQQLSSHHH
# [11] = target: T4, ATP-dependent translocase ABCB1 (Homo sapiens, UniProt P08183); experiment: ABCB1 efflux inhibitor potency, dose response, Jurkat-DNR cells, JC-1, flow cytometry, set 2 (AID 504569); type: functional; conditions: read-out: EC50_MICROM_;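 also: potency of pump inhibitors that raise cellular JC-1 green fluorescence up to the nicardipine level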
# T4 sequence (P08183 whole entry): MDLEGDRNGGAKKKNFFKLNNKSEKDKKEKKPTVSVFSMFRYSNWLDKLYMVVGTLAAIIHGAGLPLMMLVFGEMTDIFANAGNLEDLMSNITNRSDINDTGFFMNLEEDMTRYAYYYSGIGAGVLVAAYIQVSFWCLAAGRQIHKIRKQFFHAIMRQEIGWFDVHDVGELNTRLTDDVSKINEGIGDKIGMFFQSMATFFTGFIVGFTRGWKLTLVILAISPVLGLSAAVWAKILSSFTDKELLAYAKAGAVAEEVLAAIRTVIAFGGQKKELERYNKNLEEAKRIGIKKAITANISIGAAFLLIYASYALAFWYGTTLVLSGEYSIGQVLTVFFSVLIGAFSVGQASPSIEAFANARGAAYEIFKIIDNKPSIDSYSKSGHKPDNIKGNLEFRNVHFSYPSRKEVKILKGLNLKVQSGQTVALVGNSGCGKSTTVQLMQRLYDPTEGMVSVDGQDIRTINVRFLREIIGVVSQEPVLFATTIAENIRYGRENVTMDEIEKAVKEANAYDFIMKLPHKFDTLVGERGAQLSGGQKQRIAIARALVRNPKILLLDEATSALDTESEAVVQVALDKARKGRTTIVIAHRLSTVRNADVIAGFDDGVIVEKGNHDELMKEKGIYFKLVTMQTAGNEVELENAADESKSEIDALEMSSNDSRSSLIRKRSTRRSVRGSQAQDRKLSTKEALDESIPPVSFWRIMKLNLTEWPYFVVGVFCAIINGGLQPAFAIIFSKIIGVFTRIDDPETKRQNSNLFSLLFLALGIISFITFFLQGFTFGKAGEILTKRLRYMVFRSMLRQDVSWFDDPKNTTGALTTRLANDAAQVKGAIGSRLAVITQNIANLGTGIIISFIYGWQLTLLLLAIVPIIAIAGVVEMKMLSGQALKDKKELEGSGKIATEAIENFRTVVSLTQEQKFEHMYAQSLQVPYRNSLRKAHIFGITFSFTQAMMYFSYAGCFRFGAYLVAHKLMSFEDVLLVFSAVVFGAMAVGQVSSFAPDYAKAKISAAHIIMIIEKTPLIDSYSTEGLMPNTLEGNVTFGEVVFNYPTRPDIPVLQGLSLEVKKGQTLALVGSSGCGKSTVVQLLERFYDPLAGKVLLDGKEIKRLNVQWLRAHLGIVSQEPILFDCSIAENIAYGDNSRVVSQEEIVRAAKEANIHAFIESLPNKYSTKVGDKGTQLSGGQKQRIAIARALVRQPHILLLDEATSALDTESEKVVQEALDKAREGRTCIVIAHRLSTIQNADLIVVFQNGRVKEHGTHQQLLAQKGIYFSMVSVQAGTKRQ
# [12] = target: T4, ATP-dependent translocase ABCB1; experiment: ABCG2 efflux pump inhibitor potency, dose response, Ig-MXP3 cells, JC-1, flow cytometry, set 2 (AID 504566); type: functional; conditions: read-out: EC50_MICROM_;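 also: flow cytometry median green fluorescence of retained JC-1 dye; potency of efflux pump inhibition measured as rising substrate retention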
# [13] = target: Aryl hydrocarbon receptor (Homo sapiens, UniProt P35869); conditions: Potency;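 also: confirmatory quantitative high-throughput screen measuring activation of the AhR signaling pathway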
# Chain of Aryl hydrocarbon receptor (P35869 whole entry): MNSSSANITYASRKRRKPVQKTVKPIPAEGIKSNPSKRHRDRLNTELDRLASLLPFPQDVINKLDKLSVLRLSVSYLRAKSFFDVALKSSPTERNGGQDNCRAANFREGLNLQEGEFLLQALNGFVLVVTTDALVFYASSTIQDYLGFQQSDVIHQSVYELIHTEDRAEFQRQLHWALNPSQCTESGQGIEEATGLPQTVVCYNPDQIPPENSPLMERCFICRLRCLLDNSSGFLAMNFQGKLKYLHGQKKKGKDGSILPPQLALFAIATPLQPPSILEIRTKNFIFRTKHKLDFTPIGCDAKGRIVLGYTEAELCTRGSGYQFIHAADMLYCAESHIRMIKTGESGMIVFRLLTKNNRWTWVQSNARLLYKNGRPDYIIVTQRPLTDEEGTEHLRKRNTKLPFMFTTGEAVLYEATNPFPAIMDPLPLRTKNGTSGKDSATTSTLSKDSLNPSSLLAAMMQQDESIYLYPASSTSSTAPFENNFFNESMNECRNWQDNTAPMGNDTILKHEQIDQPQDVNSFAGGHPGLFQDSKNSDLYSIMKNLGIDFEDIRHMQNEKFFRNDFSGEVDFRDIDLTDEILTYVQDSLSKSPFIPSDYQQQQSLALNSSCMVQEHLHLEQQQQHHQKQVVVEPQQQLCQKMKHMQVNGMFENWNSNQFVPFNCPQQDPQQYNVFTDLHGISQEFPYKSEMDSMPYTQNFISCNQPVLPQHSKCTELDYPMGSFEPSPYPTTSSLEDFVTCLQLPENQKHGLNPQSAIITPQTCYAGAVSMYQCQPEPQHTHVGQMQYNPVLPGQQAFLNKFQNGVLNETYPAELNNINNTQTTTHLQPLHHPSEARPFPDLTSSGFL
# H4 = experiment: Luminescence Cell-Based Dose Response HTS to Identify Activators of 5'UTR Stem-Loop Driven Prion Protein mRNA Translation in H4 Neuroglioblastoma Cells. [Related pubchem assays: 1829 (Project Summary), 1814 (Primary HTS)]; type: functional; conditions: Homo sapiens
# [14] = HeLa cell cytotoxicity, dose response, cytotoxicity control for MgcRacGAP inhibitor project (AID 624300); type: functional
# [15] = Luminescence Cell-Based Dose Confirmation HTS to Identify Activators of 5'UTR Stem-Loop Driven Alpha-Synuclein mRNA Translation in H4 Neuroglioblastoma Cells. [Related pubchem assays: 1829 (Project Summary), 1814 (Primary HTS)]; type: functional
# [16] = target: T5, Rac GTPase-activating protein 1 (Homo sapiens, UniProt Q9H0H5); experiment: MgcRacGAP GTPase-activating activity inhibitors, confirmation, biochemical, ADP Hunter fluorescence, primary and confirmatory (AID 624330); type: functional
# T5 sequence (Q9H0H5 whole entry): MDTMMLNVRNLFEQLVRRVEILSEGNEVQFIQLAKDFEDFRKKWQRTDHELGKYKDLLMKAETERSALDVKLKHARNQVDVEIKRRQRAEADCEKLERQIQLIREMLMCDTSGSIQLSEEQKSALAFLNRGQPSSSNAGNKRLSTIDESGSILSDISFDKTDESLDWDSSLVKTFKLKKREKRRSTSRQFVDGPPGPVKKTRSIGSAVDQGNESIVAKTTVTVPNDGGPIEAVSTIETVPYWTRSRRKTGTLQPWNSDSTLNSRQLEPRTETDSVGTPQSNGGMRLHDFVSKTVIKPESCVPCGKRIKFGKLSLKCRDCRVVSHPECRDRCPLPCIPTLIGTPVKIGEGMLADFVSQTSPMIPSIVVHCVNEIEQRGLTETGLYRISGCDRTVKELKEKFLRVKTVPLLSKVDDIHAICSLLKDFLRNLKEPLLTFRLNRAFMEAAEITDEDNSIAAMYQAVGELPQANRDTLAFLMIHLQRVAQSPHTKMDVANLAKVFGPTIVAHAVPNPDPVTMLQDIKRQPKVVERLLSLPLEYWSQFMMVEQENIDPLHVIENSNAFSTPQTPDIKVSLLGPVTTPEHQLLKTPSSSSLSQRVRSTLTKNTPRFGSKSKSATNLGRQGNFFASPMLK
# [17] = Luminescence Cell-Based Dose Response HTS to Identify Activators of Luciferase Translation or Activity in H4 […] Cells. [Related pubchem assays: 1829 (Project Summary), 1814 (Primary HTS)]; type: functional
# [18] = Vero cell cytotoxicity, cytotoxicity control for M. tuberculosis inhibitor project, purified and synthesized samples, set 3 (AID 504684); type: functional
# [19] = Luminescence Cell-Based Dose Retest to Confirm Inhibitors of Cancer Stem Cells. [Related pubchem assays (depositor defined):AID2717, AID2721]; type: functional; conditions: Homo sapiens
# [20] = test system: Streptococcus sp. 'group A'; experiment: growth inhibition of control SK(-) GAS strain, dose response, counter-screen for streptokinase expression inhibitor project, luminescence, kanamycin, BacTiterGlo, confirmation (AID 1900); type: functional, organism-based
# [21] = ADAM10 inhibitors, peptide cleavage, dose response, biochemical, QFRET (AID 743254);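 also: ADAM10 enzyme with the DM2 quenched FRET peptide as substrate; EDANS fluorescence gain as the protease cuts the substrate; inhibitor potency against ADAM10 proteolytic activity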
# [22] = target: Disintegrin and metalloproteinase domain-containing protein 17 (Homo sapiens, UniProt P78536); experiment: ADAM17 protease inhibitors, dose response, counter-screen for ADAM10 exosite inhibitor project, biochemical, quenched FRET substrate (AID 743253)
# [23] = target: Induced myeloid leukemia cell differentiation protein Mcl-1 (Homo sapiens, UniProt Q07820); type: functional
# Chain of Induced myeloid leukemia cell differentiation protein Mcl-1 (Q07820 whole entry): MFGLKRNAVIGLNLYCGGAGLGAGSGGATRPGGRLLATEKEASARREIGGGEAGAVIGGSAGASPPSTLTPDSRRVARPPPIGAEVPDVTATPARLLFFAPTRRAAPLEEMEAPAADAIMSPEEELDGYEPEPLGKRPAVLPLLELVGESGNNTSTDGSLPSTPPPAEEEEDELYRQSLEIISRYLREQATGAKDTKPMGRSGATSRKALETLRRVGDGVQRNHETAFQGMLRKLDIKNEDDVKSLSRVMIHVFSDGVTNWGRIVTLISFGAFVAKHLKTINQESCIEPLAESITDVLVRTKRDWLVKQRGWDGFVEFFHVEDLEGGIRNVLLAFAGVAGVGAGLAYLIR
# Streptococcus = experiment: Group A Streptococcus viability loss, dose response, counter-screen for streptokinase expression inhibitor project, luminescence, BacTiterGlo (AID 1915); type: functional, organism-based;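 also: potency for reduction of bacterial viability or growth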
# [24] = target: DNA (cytosine-5)-methyltransferase 1 (Homo sapiens, UniProt P26358); experiment: DNMT1 methyltransferase inhibitors, confirmation, biochemical, fluorescent molecular beacon (AID 602386); type: functional
smiles,measurement,setting,value
CCCCN(C)C1=CC2=CC(=C(C#N)C#N)CCC2CC1 (stereo unspecified),EC50,Insulin-degrading enzyme [1],> 54.7 µM (inactive)
same,IC50,HEK293 [2],> 89.2 µM (inactive)
same,EC50,HEK293 [3],1.55 µM (active)
same,IC50,Beta-lactamase [4],1.47 µM (active)
same,EC50,[5],4.42 µM (active)
same,EC50,Insulin-degrading enzyme [6],> 54.7 µM (inactive)
same,IC50,Beta-lactamase [7],5.07 µM (active)
Cc1cc(N/C=C2/C(=O)N(c3ccc4c(c3)OCO4)C(=O)c3ccccc32)ccn1,IC50,[8],22.1 µM (inactive)
same,EC50,[9],188 µM (inconclusive)
same,EC50,[10],27.5 µM (active)
O=C(c1ccoc1)N1CCN(c2cc(-c3ccccc3F)nc3cc(-c4cccc(Cl)c4)nn23)CC1,EC50,[11],5.75 µM (active)
same,EC50,[12],1.59 µM (active)
O=C=Nc1ccc(Cl)c(Cl)c1,AC50,[13],56.2 µM (inconclusive)
COc1ccc(/C=N/Nc2ncnc3sc4c(c23)CCCC4)cc1O,EC50,H4,8.38 µM (active)
same,CC50,[14],70.4 µM (active)
same,EC50,[15],13.4 µM (active)
same,IC50,[16],56.1 µM (active)
same,EC50,[17],6.72 µM (active)
O=C(CSc1nccc(O)n1)Nc1ccc(Oc2ccccc2)cc1,CC50,[18],> 100 µM (active)
Cc1ccc(C2C(/C=C3/SC(=S)NC3=O)=C(c3cccs3)Oc3ccccc32)cc1 (stereo unspecified),AC50,[19],874 nM (active)
same,EC50,[20],649 nM (active)
same,IC50,[21],16.7 µM (inactive)
same,IC50,[22],33.7 µM (inactive)
same,IC50,[23],3.63 µM (active)
same,EC50,Streptococcus,1.11 µM (active)
same,IC50,[24],3.74 µM (active)
